Reference: patent publication US5985833A, “Thrombin inhibitor” (Wisconsin Alumni Research Foundation, priority 1996, dated 1999)
“Also recorded” adds a separate entry of the source. Where a SMILES comes first, the peptide text is derived from it. Where no end group is shown, it is not given here. [ ]: non-standard residue; d: D form. sY = N[C@@H](Cc1ccc(OS(=O)(=O)O)cc1)C(=O)O

Assays:
thrombin [1] = biological target: T1, thrombin (Homo sapiens, UniProt P00734); assay: Peptide inhibition of 125I-PPACK-thrombin binding to peak 1 fibrin clot; conditions: for IC50 for inhibition of thrombin binding to peak 1 fibrin (in words): non-sulfated γ' peptides containing 416 T→V and 420 S→A substitutions, FIG. 8; for IC50 / inhibition of thrombin binding to peak 1 fibrin (in words): sulfated peptides
T1 construct: PPACK-thrombin was prepared by adding a five-fold molar excess of PPACK (Calbiochem, San Diego, Calif.) to α-thrombin; purchased Enzyme Research Laboratories, Inc., South Bend, Ind
Procedure: To determine the capacity of the peptides to inhibit thrombin binding, a 200 μl clot containing fibrin (0.5 nmoles) and ^125 I-PPACK-thrombin (0.1 nmoles) in 0.05M HEPES, 0.10M NaCl buffer, pH 7.4, and 0.01% (w/v) polyethylene glycol 8000 was formed in the presence of varying concentrations of peptide. The amount of thrombin bound to the clot was determined by counting the ^125 I radioactivity in a gamma counter. […] For most studies, peak 1 fibrin was used to assess the inhibitory capacity of the peptides. Similar qualitative thrombin-binding results were obtained using peak 2 fibrin (FIG. 6), but higher levels of peptide were needed to inhibit binding since this molecule contains the high affinity thrombin-binding site.

thrombin [2] = conditions: cited from earlier work
thrombin [3] = biological target: T1, thrombin; assay: Peptide inhibition of 125I-PPACK-thrombin binding to peak 2 fibrin clot; conditions: FIG. 6

Compound | IC50 for inhibition of thrombin binding to peak 1 fibrin (in words) (thrombin [1]) | IC50 / inhibition of thrombin binding to peak 1 fibrin (in words) (thrombin [1]; FIG. 7) | other results
CC(C)C[C@H](NC(=O)[C@H](CC(=O)O)NC(=O)[C@H](CC(=O)O)NC(=O)[C@H](CCC(=O)O)NC(=O)[C@@H]1CCCN1C(=O)[C@H](Cc1ccc(OS(=O)(=O)O)cc1)NC(=O)[C@H](CC(C)C)NC(=O)[C@H](C)NC(=O)[C@@H](N)CCC(=O)O)C(=O)O [γ' 419-427(420A), E A L Y P E D D L] (H-EAL[sY]PEDDL-OH) |  | nor the carboxy-terminalγ' 419-427(420A) segment of this peptide had any significant inhibition of thrombin binding | 
AEVEYEALYPEDDL [γ' 414-427 (416V/420A), A E V E Y E A L Y P E D D L] | no significant increases in IC50; also recorded: lowest IC50 |  | 
fibrinogen |  |  | Km (thrombin [2]; fibrinogen peptides or fibrinogen itself, read-out: Km estimated from peptide A release): 6 to 11 µM; Kd (thrombin [2]; substrate site, read-out: Kd derived from similar kinetic studies): 1.3 to 2.6 µM
E H P A E T E Y E S L Y P E D D L (EHPAETEYESLYPEDDL) [sulfated γ' 411-427, doubly tyrosine-sulfated native γ' peptide] |  | Even greater inhibitory effects | IC50 / inhibition of thrombin binding to peak 1 fibrin (in words) (thrombin [1]; FIG. 7, listed as γ' 411-472): similar
CC(C)[C@H](NC(=O)[C@H](CCC(=O)O)NC(=O)[C@H](C)NC(=O)[C@@H]1CCCN1C(=O)[C@H](Cc1c[nH]cn1)NC(=O)[C@H](CCC(=O)O)NC(=O)[C@@H]1CCCN1)C(=O)N[C@@H](CCC(=O)O)C(=O)N[C@@H](Cc1ccc(OS(=O)(=O)O)cc1)C(=O)O [γ' 410-418(416V), P E H P A E V E Y] (H-PEHPAEVE[sY]-OH) |  | neither the amino-terminal γ' 410-418(416V) nor the carboxy-terminalγ' 419-427(420A) segment of this peptide had any significant inhibition of thrombin binding | 
E H P A E T E F E S L Y P E D D L (EHPAETEFESLYPEDDL) [γ' 411-427/418F, tyrosine at 418 substituted with phenylalanine] |  | increase in IC50 compared with the doubly tyrosine-sulfated peptide; also recorded: lower IC50 than non-sulfated γ' A408-427 | 
AVRPEHPAETEYESLYPEDDL (AVRPEHPAETEYESLYPEDDL) [sulfated γ' A408-427] |  | similar | IC50 (thrombin [3]; peak 2 fibrin, tyrosine-sulfated peptides): 14 µM; inhibitory effect on thrombin binding to peak 2 fibrin (in words) (thrombin [3]; sulfated versus non-sulfated peptide): greater inhibitory effect

Continued, in another order:

IC50 for inhibition of thrombin binding to peak 1 fibrin (in words) (thrombin [1]) | Compound | IC50 / inhibition of thrombin binding to peak 1 fibrin (in words) (thrombin [1]; FIG. 7) | other results
no significant increases in IC50 | PEHPAEVEYEALYPEDDL [γ' 410-427 (416V/420A)] |  | 
no significant increases in IC50 | EHPAEVEYEALYPEDDL [γ' 411-427 (416V/420A), E H P A E V E Y E A L Y P E D D L] |  | 
no significant increases in IC50 | VRPEHPAEVEYEALYPEDDL [γ' 408-427 (416V/420A), VRPEHPAEVEYEALYPEDDL] |  | 
